# Results reported in the Deep4Chem optical property database.
# Where “and” joins values, the source holds several entries; their conditions need not be identical. Identical values can stand only once.
# Assay: solvent given as SMILES
structure (smiles),measurement,setting,value
COc1ccc2c(CC(=O)NN)coc2c1,emission maximum,in C1CCOC1,381 nm
same,emission maximum,in CC#N,376 nm
same,emission maximum,in CC(C)=O,396 nm
same,emission maximum,in CCCCO,384 nm
same,emission maximum,in CCCO,396 nm
same,emission maximum,in CCO,374 nm
same,emission maximum,in CCOC(C)=O,368 nm
same,emission maximum,in CN(C)C=O,378 nm
same,emission maximum,in CO,378 nm
same,emission maximum,in ClCCl,402 nm
CC1(C)CC(/C=C/c2ccc(-n3ccnc3)cc2)=CC(=C(C#N)C#N)C1,emission maximum,in C1CCOC1,524 nm
same,emission maximum,in CC#N,526 nm
same,emission maximum,in CCO,520 nm
same,emission maximum,in CCOC(C)=O,518 nm
same,emission maximum,in ClCCl,504 nm
same,emission maximum,in c1ccccc1,511 nm
O=P1(c2ccccc2)C(c2cc(C(F)(F)F)cc(C(F)(F)F)c2)=Cc2c3ccc4cccc5ccc(c6cc(-c7ccccc7)n1c26)c3c45 (configuration not stated),emission maximum,in C1CCCCC1,501 nm
same,emission maximum,in C1CCOC1,521 nm
same,emission maximum,in C1COCCO1,514 nm
same,emission maximum,in CC#N,531 nm
same,emission maximum,in CC(C)=O,526 nm
same,emission maximum,in CO,524 nm
same,emission maximum,in Cc1ccccc1,514 nm
same,emission maximum,in ClC(Cl)Cl,514 nm
same,emission maximum,in ClCCl,521 nm
Cc1cc2c(cc1N1c3ccccc3C(C)(C)c3ccccc31)C(C)(C)c1cc(N3c4ccccc4C(C)(C)c4ccccc43)c(C)cc1S2(=O)=O,emission maximum,in Cc1ccccc1,442.11 nm
same,emission maximum,in ClCCl,495 nm
CN(C)c1ccc(/C=C/c2cnc(C#Cc3ccc(C#N)cc3)o2)cc1,emission maximum,in ClCCl,515 nm
COc1ccc(-n2c3ccccc3c3c(C)cc4ccccc4c32)cc1,emission maximum,in ClCCl,367 nm
C(#Cc1ccc(N(c2ccc(C#Cc3ccc(-c4cc(-c5ccccc5)nc(-c5ccccc5)c4)cc3)cc2)c2ccc(C#Cc3ccc(-c4cc(-c5ccccc5)nc(-c5ccccc5)c4)cc3)cc2)cc1)c1ccc(-c2cc(-c3ccccc3)nc(-c3ccccc3)c2)cc1,emission maximum,in C1CCOC1,455 nm
same,emission maximum,in Cc1ccccc1,426 nm
CCCCCCCCCCOc1cc(OCCCCCCCCCC)cc(C2=C3C(/C=C/c4ccc(N(C)C)cc4)=C(C#Cc4ccc(C(C)(C)C)cc4)C(/C=C/c4ccc(N(C)C)cc4)=[N+]3[B-](F)(F)n3c(/C=C/c4ccc(N(C)C)cc4)c(C#Cc4ccc(C(C)(C)C)cc4)c(/C=C/c4ccc(N(C)C)cc4)c32)c1,emission maximum,in ClC(Cl)Cl,835 nm
C[Si]1(C)O[Si](C)(C)c2cc3nc4ccc([N+](=O)[O-])cc4c(-c4ccccc4)c3cc2[Si](C)(C)O1,emission maximum,in ClCCl,520 nm
Nc1ccc2c(C(F)(F)F)cc(=O)oc2c1,emission maximum,in C1CCC2CCCCC2C1,404 nm
same,emission maximum,in C1CCCCC1,401 nm
same,emission maximum,in C1COCCO1,442 nm
same,emission maximum,in CC1CCCCC1,401 nm
same,emission maximum,in CC#N,465 nm and 461 nm
same,emission maximum,in CC(C)=O,466 nm
same,emission maximum,in CC(C)O,481 nm
same,emission maximum,in CCC(C)CC,400 nm
same,emission maximum,in CCCC(C)C,399 nm
same,emission maximum,in CCCCCC,401 nm
same,emission maximum,in CCCCCCCCO,480 nm
same,emission maximum,in CCCCCCO,481 nm
same,emission maximum,in CCCCO,484 nm
same,emission maximum,in CCO,485 nm
same,emission maximum,in CCOC(C)=O,456 nm
same,emission maximum,in CN(C)C=O,480 nm
same,emission maximum,in CO,487 nm
same,emission maximum,in CS(C)=O,487 nm
COc1c2ccccc2c(OC)c2c1c1c(F)cccc1n2C,emission maximum,in C1CCCCC1,411 nm
same,emission maximum,in CC#N,421 nm
same,emission maximum,in CO,417 nm
same,emission maximum,in ClCCl,418 nm
O=c1c2cc(F)c(O)cc2n(Cc2ccccc2)c2cc(O)c(F)cc12,emission maximum,in CCO,431 nm
CCc1c(C)c2n(c1C)[B-](F)(F)[N+]1=C(NCc3ccc(OC)cc3)C=CC1=C2C,emission maximum,in CC#N,546 nm
same,emission maximum,in CCCCCC,554 nm
same,emission maximum,in CCOC(C)=O,549 nm
same,emission maximum,in CO,548 nm
same,emission maximum,in ClCCl,551 nm
O=C([O-])c1ccc(C(=O)[O-])c2cc3ccccc3cc12,emission maximum,in CN(C)C=O,430 nm
CCCCCCCCN1c2ccccc2Sc2cc(/C=C/c3ccc(N(c4ccc(/C=C/c5ccc6c(c5)Sc5ccccc5N6CCCCCCCC)cc4)c4ccc(/C=C/c5ccc(/C=C/c6ccc(N(c7ccc(/C=C/c8ccc9c(c8)Sc8ccccc8N9CCCCCCCC)cc7)c7ccc(/C=C/c8ccc9c(c8)Sc8ccccc8N9CCCCCCCC)cc7)cc6)c6nsnc56)cc4)cc3)ccc21,emission maximum,in C1CCOC1,654 nm
same,emission maximum,in CCOC(C)=O,644 nm
same,emission maximum,in CN(C)C=O,750 nm
same,emission maximum,in Cc1ccccc1,620 nm
same,emission maximum,in ClC(Cl)Cl,663 nm
same,emission maximum,in ClCCl,710 nm
C[C@]12SC(=O)C=C1c1nc(-c3ccc(Cl)cc3Cl)[nH]c1C1=CC(=O)S[C@@]12C,emission maximum,in CC#N,500 nm
COc1cc(-c2cnc(-c3cnc4ccccc4c3)o2)cc(OC)c1OC,emission maximum,in ClCCl,458 nm
CC1(C)C(/C=C/C2=C(Cl)C(=C/C=C3/N(Cc4ccc(F)cc4)c4ccccc4C3(C)C)/CCC2)=[N+](Cc2ccc(F)cc2)c2ccccc21,emission maximum,in CO,809 nm
CC1=CC(C)=[N+]2C1=C(c1ccc(I)cc1)c1c(C)cc(C)n1[B-]2(OC(C)C)OC(C)C,emission maximum,in ClC(Cl)Cl,517.73 nm
COc1ccc(/C=C/c2ccncn2)cc1,emission maximum,in ClCCl,418 nm
CCCCCCCCCCC(CCCCCCCCCC)Cn1c2cc(-c3ccc(C(C)(C)C)cc3)c3cccc4c5ccc6c7cc(-c8cc(C(C)(C)C)cc(C(C)(C)C)c8)n8c7c(c7cc1c(c5c76)c2c34)=C1C=CC(c2cc(C(C)(C)C)cc(C(C)(C)C)c2)=[N+]1[B-]8(F)F,emission maximum,in Cc1ccccc1,830 nm
Cc1oc2c(Cl)cc3c(C)cc(=O)oc3c2c1C,emission maximum,in C1CCCCC1,403 nm
same,emission maximum,in C1COCCO1,416 nm
same,emission maximum,in CC#N,431 nm
same,emission maximum,in CCO,440 nm
same,emission maximum,in OCC(F)(F)F,469 nm
COC(=O)c1ccc(/C=C/C(F)(F)F)c(N)c1,emission maximum,in C1CCOC1,447 nm
c1ccc2c(-c3ccc(-n4c5ccccc5c5ccccc54)cc3)c3c(nc2c1)-c1cc2c(cc1CC3)-c1nc3ccccc3c(-c3ccc(-n4c5ccccc5c5ccccc54)cc3)c1CC2,emission maximum,in ClC(Cl)Cl,385 nm
CN1/C(=C/C=C(/C=C/c2sc3ccccc3[n+]2C)c2ccccc2)Sc2ccccc21,emission maximum,in CCO,676 nm
same,emission maximum,in CO,679 nm
same,emission maximum,in CS(C)=O,683 nm
same,emission maximum,in O,673 nm
Cc1cc(-c2ccc3ccccc3c2)cc(C)[o+]1,emission maximum,in ClCCl,544 nm
N#Cc1c(N2CCCCC2)cc(-c2ccccc2)c2c1Cc1ccccc1-2,emission maximum,in C1CCOC1,449 nm
O=C1c2ccccc2-c2cc3ccccc3c(=O)n21,emission maximum,in CC#N,443 nm
same,emission maximum,in CO,445 nm
same,emission maximum,in CS(C)=O,455 nm
same,emission maximum,in ClC(Cl)Cl,445 nm
Cc1ccc(S(=O)(=O)Nc2c(/C=C/c3ccccc3)sc(-c3ccc(N(C)C)cc3)c2-c2ccsc2)cc1,emission maximum,in CC#N,627 nm
COc1ccc(-c2cc3c(s2)c(-c2ccccc2)cc(=O)n3C)cc1,emission maximum,in CC#N,435 nm
same,emission maximum,in ClCCl,437 nm
c1ccc(N(c2ccccc2)c2ccc(-n3ccc4cc(-c5cccc6c5-c5ccccc5C6(c5ccccc5)c5ccccc5)ccc43)cc2)cc1,emission maximum,in ClCCl,381 nm
CCCCCCCC1=C(C)C(=O)n2c1cc1[nH]c(C(=O)OC)c(C)c1c2=O,emission maximum,in C1CCCCC1,448 nm
same,emission maximum,in CO,500 nm
same,emission maximum,in CS(C)=O,482 nm
same,emission maximum,in ClC(Cl)Cl,448 nm
same,emission maximum,in c1ccccc1,441 nm
O=C1c2cc3ccccc3cc2C2=Nc3cccc[n+]3[B-](F)(F)N12,emission maximum,in ClCCl,414 nm
COC(=O)C1(C(=O)OC)Cc2c(C#Cc3ccc(OC)cc3)c(-c3ccc(OC)cc3)c3c(-c4ccccc4)c(-c4ccccc4)c(-c4ccccc4)c(-c4ccccc4)c3c2C1,emission maximum,in C1CCOC1,421.77 nm
